According to patent publication US9163256B2, “Mutant receptors and their use in a nuclear receptor-based inducible gene expression system” (priority 2004, dated 2015):
Several values for one entry are separate records, joined by “and”; a condition that tells them apart may be missing. Identical values can stand only once. Like-named read-outs stand apart in the source and are kept apart here.

Legend:
Assay in all cases: cell-based
CfEcR-DEF mutant A110P = CfEcR-DEF mutant A110P (Choristoneura fumiferana, UniProt O77255, A393P)
Method in brief: (§1)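 Mouse NIH3T3 cells were treated with ligand in DMSO, then transfected with GAL4 luciferase reporter (0.16 μg/well) plus mutant CfEcR-DEF receptor constructs (0.04 μg each/well). Cells were kept at 37° C in 5% FBS and lysed 40 hours after ligand addition for dual-luciferase measurement. Fold induction = ligand RLU ÷ DMSO RLU.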

CfEcR-DEF mutant A110W = CfEcR-DEF mutant A110W (Choristoneura fumiferana, UniProt O77255, A393W)
Method in brief: as §1

CfEcR-DEF mutant F109L = CfEcR-DEF mutant F109L (Choristoneura fumiferana, UniProt O77255, F392L)
Method in brief: as §1

CfEcR-DEF mutant L234I = CfEcR-DEF mutant L234I (Choristoneura fumiferana, UniProt O77255, L517I)
Method in brief: as §1

CfEcR-DEF mutant M125C = CfEcR-DEF mutant M125C (Choristoneura fumiferana, UniProt O77255, M408C)
Method in brief: as §1

CfEcR-DEF mutant M125L = CfEcR-DEF mutant M125L (Choristoneura fumiferana, UniProt O77255, M408L)
Method in brief: as §1

CfEcR-DEF mutant M54T = CfEcR-DEF mutant M54T (Choristoneura fumiferana, UniProt O77255, M337T)
Method in brief: as §1

CfEcR-DEF mutant M54W = CfEcR-DEF mutant M54W (Choristoneura fumiferana, UniProt O77255, M337W)
Method in brief: as §1

CfEcR-DEF mutant M92E = CfEcR-DEF mutant M92E (Choristoneura fumiferana, UniProt O77255, M375E)
Method in brief: as §1

CfEcR-DEF mutant M92L = CfEcR-DEF mutant M92L (Choristoneura fumiferana, UniProt O77255, M375L)
Method in brief: as §1

CfEcR-DEF mutant R95H = CfEcR-DEF mutant R95H (Choristoneura fumiferana, UniProt O77255, R378H)
Method in brief: as §1

CfEcR-DEF mutant T52E = CfEcR-DEF mutant T52E (Choristoneura fumiferana, UniProt O77255, T335E)
Method in brief: as §1

CfEcR-DEF mutant T52L = CfEcR-DEF mutant T52L (Choristoneura fumiferana, UniProt O77255, T335L)
Method in brief: as §1

[1] = target: CfEcR-DEF mutant V128F/A110P (Choristoneura fumiferana, UniProt O77255, A393P/V411F)
Method in brief: as §1

CfEcR-DEF mutant V96S = CfEcR-DEF mutant V96S (Choristoneura fumiferana, UniProt O77255, V379S)
Method in brief: as §1

CfEcR-DEF mutant W238P = CfEcR-DEF mutant W238P (Choristoneura fumiferana, UniProt O77255, W521P)
Method in brief: as §1

CfEcR-DEF mutant Y120W = CfEcR-DEF mutant Y120W (Choristoneura fumiferana, UniProt O77255, Y403W)
Method in brief: as §1

CfEcR-DEF mutant A110N = CfEcR-DEF mutant A110N (Choristoneura fumiferana, UniProt O77255, A393N); parameters: Concentration (mM) at max FI: unit not given here
Protocol: (§2) This construct was prepared in the same way as in switch 1.1 above except wild-type CfEcR-DEF was replaced with mutant CfEcR-DEF comprising a ligand binding domain comprising a substitution mutation selected from Table 1 below.
(§3) DNAs were transfected into mouse NIH3T3 cells (ATCC) as follows. Standard methods for culture and maintenance of the cells were followed. Cells were harvested and plated 96-well plates at 2,500 cells per well, in 50 μL of growth medium containing 10% fetal bovine serum (FBS). Twenty-four hours later, the cells were treated with 35 μL of serum-free growth medium containing either dimethylsulfoxide (DMSO; control) or a DMSO solution of ligand. The cells were then transfected using Superfect (Qiagen Inc.) transfection reagent. For each well, 0.625 μL of Superfect was mixed with 14.2 μL of serum-free growth medium. 0.16 μg of reporter construct and 0.04 μg of each receptor construct were added to the transfection reagent mix. The contents of the transfection mix were mixed in a vortex mixer and let stand at room temperature for 30 minutes. At the end of incubation, 15 μL of transfection mix was added to the cells. The cells were maintained at 37° C. and 5% CO2 for 48 hours in 5% FBS.
(§4) Reporter Assays: Cells were harvested 40 hours after adding ligands. 125 μL of passive lysis buffer (part of Dual-Luciferase reporter assay system from Promega Corporation) were added to each well of the […] plate. The plates were placed on a rotary shaker for 15 minutes. Twenty μL of lysate were assayed. Luciferase activity was measured using Dual-Luciferase reporter assay system from Promega Corporation following the manufacturer's instructions. Fold induction (FI) activities were calculated by dividing relative light units (“RLU”) in ligand treated cells with RLU in DMSO treated cells (untreated control).

CfEcR-DEF mutant W238E = CfEcR-DEF mutant W238E (Choristoneura fumiferana, UniProt O77255, W521E); parameters: Concentration (mM) at max FI: unit not given here
Protocol: as §2, §3, §4

CfEcR-DEF mutant L132M = CfEcR-DEF mutant L132M (Choristoneura fumiferana, UniProt O77255, L415M); format: cell-based; conditions: for Emax: NIH3T3, 40 h, read-out: Rel Max FI, mutant L132M
Protocol: as §2, §3, §4

[2] = NIH3T3, 40 h, read-out: Rel Max FI
[3] = NIH3T3, mouse, 40 h, read-out: GS-E ligand max FI (relative to DMSO)

Chain of CfEcR-DEF mutant M54W (O77255 entry or part of it M337W): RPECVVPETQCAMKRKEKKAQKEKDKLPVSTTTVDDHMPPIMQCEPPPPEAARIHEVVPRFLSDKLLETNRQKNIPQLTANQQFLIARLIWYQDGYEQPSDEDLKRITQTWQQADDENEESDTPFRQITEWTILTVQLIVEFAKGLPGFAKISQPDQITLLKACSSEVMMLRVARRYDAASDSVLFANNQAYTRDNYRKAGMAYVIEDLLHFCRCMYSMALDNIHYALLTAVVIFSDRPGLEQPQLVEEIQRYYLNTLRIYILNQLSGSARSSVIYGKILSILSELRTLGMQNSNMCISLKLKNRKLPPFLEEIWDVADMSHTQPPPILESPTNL
Chain of CfEcR-DEF mutant M54W (P28702 299-449, further chain): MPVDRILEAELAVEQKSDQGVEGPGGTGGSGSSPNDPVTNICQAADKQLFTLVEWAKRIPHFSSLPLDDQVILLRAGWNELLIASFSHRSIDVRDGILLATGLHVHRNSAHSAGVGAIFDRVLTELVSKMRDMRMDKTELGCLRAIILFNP
Chain of CfEcR-DEF mutant Y120W (O77255 entry or part of it Y403W): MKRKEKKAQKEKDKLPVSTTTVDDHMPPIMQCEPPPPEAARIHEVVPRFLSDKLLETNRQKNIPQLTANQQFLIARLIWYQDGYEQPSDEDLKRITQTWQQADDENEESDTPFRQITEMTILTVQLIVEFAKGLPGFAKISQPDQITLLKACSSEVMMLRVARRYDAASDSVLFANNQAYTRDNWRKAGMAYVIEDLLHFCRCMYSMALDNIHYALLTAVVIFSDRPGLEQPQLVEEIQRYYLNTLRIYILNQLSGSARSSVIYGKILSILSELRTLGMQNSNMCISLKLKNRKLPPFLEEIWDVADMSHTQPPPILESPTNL
Chain of CfEcR-DEF mutant Y120W (P28702 299-449, further chain): as the sequence (P28702 299-449, further chain) above
Chain of CfEcR-DEF mutant M54T (O77255 entry or part of it M337T): as the sequence (O77255 entry or part of it M337W) above, with W131T counted along it
Chain of CfEcR-DEF mutant M54T (P28702 299-449, further chain): as the sequence (P28702 299-449, further chain) above
Chain of CfEcR-DEF mutant T52E (O77255 entry or part of it T335E): as the sequence (O77255 entry or part of it Y403W) above, with T117E, W185Y counted along it
Chain of CfEcR-DEF mutant T52E (P28702 299-449, further chain): as the sequence (P28702 299-449, further chain) above
Chain of CfEcR-DEF mutant L132M (O77255 entry or part of it L415M): as the sequence (O77255 entry or part of it M337W) above, with W131M, L209M counted along it
Chain of CfEcR-DEF mutant L132M (P28702 298-449, further chain): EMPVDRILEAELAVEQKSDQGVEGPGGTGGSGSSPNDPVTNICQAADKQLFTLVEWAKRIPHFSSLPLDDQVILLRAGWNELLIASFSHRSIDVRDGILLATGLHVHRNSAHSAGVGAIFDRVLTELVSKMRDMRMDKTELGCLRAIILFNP
Chain of CfEcR-DEF mutant M125C (O77255 entry or part of it M408C): as the sequence (O77255 entry or part of it M337W) above, with W131M, M202C counted along it
Chain of CfEcR-DEF mutant M125C (P28702 299-449, further chain): as the sequence (P28702 299-449, further chain) above
Chain of CfEcR-DEF mutant W238P (P28702 299-449): as the sequence (P28702 299-449, further chain) above
Chain of CfEcR-DEF mutant W238P (O77255 entry or part of it W521P): as the sequence (O77255 entry or part of it Y403W) above, with W185Y, W303P counted along it
Chain of CfEcR-DEF mutant R95H (P28702 299-449): as the sequence (P28702 299-449, further chain) above
Chain of CfEcR-DEF mutant R95H (O77255 entry or part of it R378H): as the sequence (O77255 entry or part of it Y403W) above, with R160H, W185Y counted along it
Chain of CfEcR-DEF mutant L234I (P28702 299-449): as the sequence (P28702 299-449, further chain) above
Chain of CfEcR-DEF mutant L234I (O77255 entry or part of it L517I): as the sequence (O77255 entry or part of it M337W) above, with W131M, L311I counted along it

Q: For `CCc1c(OC)cccc1C(=O)NN(C(=O)c1cc(C)cc(C)c1)C(C)(C)C` [RG-102240, N-(2-ethyl-3-methoxybenzoyl)-N′-(3,5-dimethylbenzoyl)-N′-tert-butylhydrazine], which EC50 (CfEcR-DEF mutant A110P) is on record?
A: 550 nM

Q: What about the Emax (CfEcR-DEF mutant A110P; [2]) of the same molecule?
A: 100%

Q: What about the maximal fold induction (CfEcR-DEF mutant A110P; [3]) of the same molecule?
A: 2290

Q: What about the EC50 (CfEcR-DEF mutant A110W) of the same molecule?
A: 1370 nM

Q: And the Emax (CfEcR-DEF mutant A110W; [2])?
A: 100%

Q: And the maximal fold induction (CfEcR-DEF mutant A110W; [3])?
A: 5210

Q: And the “Concentration (mM) at max FI” value (CfEcR-DEF mutant A110W; mutant A110W, GS-E ligand)?
A: 10.00 mM

Q: And the EC50 (CfEcR-DEF mutant F109L)?
A: ~2000 nM

Q: What about the Emax (CfEcR-DEF mutant F109L; [2]) of the same molecule?
A: 100%

Q: What about the maximal fold induction (CfEcR-DEF mutant F109L; [3]) of the same molecule?
A: 20

Q: And the “Concentration (mM) at max FI” value (CfEcR-DEF mutant F109L; mutant F109L, GS-E ligand)?
A: 33.30 mM

Q: What about the EC50 (CfEcR-DEF mutant L234I) of the same molecule?
A: 770 nM

Q: What about the Emax (CfEcR-DEF mutant L234I; [2]) of the same molecule?
A: 100%

Q: And the maximal fold induction (CfEcR-DEF mutant L234I; [3])?
A: 2650

Q: What about the “Concentration (mM) at max FI” value (CfEcR-DEF mutant L234I; mutant L234I, GS-E ligand) of the same molecule?
A: 10 mM

Q: What about the EC50 (CfEcR-DEF mutant M125C; EC50, mutant M125C) of the same molecule?
A: ~8000 nM and > 33000 nM

Q: What about the Emax (CfEcR-DEF mutant M125C; [2]) of the same molecule?
A: 100%

Q: What about the maximal fold induction (CfEcR-DEF mutant M125C; [3]) of the same molecule?
A: 9

Q: And the “Concentration (mM) at max FI” value (CfEcR-DEF mutant M125C; mutant M125C, GS-E ligand)?
A: 33.3 mM

Q: And the EC50 (CfEcR-DEF mutant M125L)?
A: ~10000 nM

Q: What about the Emax (CfEcR-DEF mutant M125L; [2]) of the same molecule?
A: 100%

Q: What about the maximal fold induction (CfEcR-DEF mutant M125L; [3]) of the same molecule?
A: 2250

Q: And the “Concentration (mM) at max FI” value (CfEcR-DEF mutant M125L; mutant M125L, GS-E ligand)?
A: 0.0333 mM

Q: What about the EC50 (CfEcR-DEF mutant M54T) of the same molecule?
A: 80 nM

Q: And the Emax (CfEcR-DEF mutant M54T; [2])?
A: 100%

Q: What about the maximal fold induction (CfEcR-DEF mutant M54T; [3]) of the same molecule?
A: 4460

Q: What about the “Concentration (mM) at max FI” value (CfEcR-DEF mutant M54T; mutant M54T, GS-E ligand) of the same molecule?
A: 10.00 mM

Q: What about the EC50 (CfEcR-DEF mutant M54W) of the same molecule?
A: 1170 nM

Q: And the Emax (CfEcR-DEF mutant M54W; [2])?
A: 100%

Q: What about the maximal fold induction (CfEcR-DEF mutant M54W; [3]) of the same molecule?
A: 1680

Q: And the “Concentration (mM) at max FI” value (CfEcR-DEF mutant M54W; mutant M54W, GS-E ligand)?
A: 0.01 mM

Q: What about the EC50 (CfEcR-DEF mutant M92E) of the same molecule?
A: ~8000 nM

Q: What about the Emax (CfEcR-DEF mutant M92E; [2]) of the same molecule?
A: 100%

Q: And the maximal fold induction (CfEcR-DEF mutant M92E; [3])?
A: 141

Q: What about the “Concentration (mM) at max FI” value (CfEcR-DEF mutant M92E; mutant M92E, GS-E ligand) of the same molecule?
A: 0.0333 mM

Q: What about the EC50 (CfEcR-DEF mutant M92L) of the same molecule?
A: ~8000 nM

Q: And the Emax (CfEcR-DEF mutant M92L; [2])?
A: 100%

Q: And the maximal fold induction (CfEcR-DEF mutant M92L; [3])?
A: 1200

Q: What about the “Concentration (mM) at max FI” value (CfEcR-DEF mutant M92L; mutant M92L, GS-E ligand) of the same molecule?
A: 33.30 mM

Q: And the EC50 (CfEcR-DEF mutant R95H)?
A: 1580 nM

Q: And the Emax (CfEcR-DEF mutant R95H; [2])?
A: 100%

Q: And the maximal fold induction (CfEcR-DEF mutant R95H; [3])?
A: 3410

Q: And the “Concentration (mM) at max FI” value (CfEcR-DEF mutant R95H; mutant R95H, GS-E ligand)?
A: 33.30 mM

Q: And the EC50 (CfEcR-DEF mutant T52E)?
A: ~7000 nM

Q: And the Emax (CfEcR-DEF mutant T52E; [2])?
A: 100%

Q: What about the maximal fold induction (CfEcR-DEF mutant T52E; [3]) of the same molecule?
A: 1540

Q: What about the “Concentration (mM) at max FI” value (CfEcR-DEF mutant T52E; mutant T52E, GS-E ligand) of the same molecule?
A: 33.3 mM

Q: What about the EC50 (CfEcR-DEF mutant T52L) of the same molecule?
A: ~500 nM

Q: What about the Emax (CfEcR-DEF mutant T52L; [2]) of the same molecule?
A: 100%

Q: And the maximal fold induction (CfEcR-DEF mutant T52L; [3])?
A: 1130

Q: And the “Concentration (mM) at max FI” value (CfEcR-DEF mutant T52L; mutant T52L, GS-E ligand)?
A: 33.3 mM

Q: What about the EC50 [1] of the same molecule?
A: ~8000 nM

Q: What about the Emax [1, 2] of the same molecule?
A: 100%

Q: And the maximal fold induction [1, 3]?
A: 2960

Q: What about the “Concentration (mM) at max FI” value ([1]; mutant V128F/A110P, GS-E ligand) of the same molecule?
A: 33.30 mM

Q: And the EC50 (CfEcR-DEF mutant V96S)?
A: 1140 nM

Q: What about the Emax (CfEcR-DEF mutant V96S; [2]) of the same molecule?
A: 100%

Q: And the maximal fold induction (CfEcR-DEF mutant V96S; [3])?
A: 1830

Q: And the “Concentration (mM) at max FI” value (CfEcR-DEF mutant V96S; mutant V96S, GS-E ligand)?
A: 33.3 mM

Q: What about the EC50 (CfEcR-DEF mutant W238P) of the same molecule?
A: ~400 nM

Q: And the Emax (CfEcR-DEF mutant W238P; [2])?
A: 100%

Q: What about the maximal fold induction (CfEcR-DEF mutant W238P; [3]) of the same molecule?
A: 4810

Q: What about the “Concentration (mM) at max FI” value (CfEcR-DEF mutant W238P; mutant W238P, GS-E ligand) of the same molecule?
A: 10 mM

Q: And the EC50 (CfEcR-DEF mutant Y120W)?
A: 4210 nM

Q: What about the Emax (CfEcR-DEF mutant Y120W; [2]) of the same molecule?
A: 100%

Q: What about the maximal fold induction (CfEcR-DEF mutant Y120W; [3]) of the same molecule?
A: 1890

Q: What about the EC50 (CfEcR-DEF mutant A110N) of the same molecule?
A: 1410 nM

Q: And the Emax (CfEcR-DEF mutant A110N; [2])?
A: 100%

Q: What about the maximal fold induction (CfEcR-DEF mutant A110N; [3]) of the same molecule?
A: 1680

Q: What about the “Concentration (mM) at max FI” value (CfEcR-DEF mutant A110N; mutant A110N, GS-E ligand) of the same molecule?
A: 10.00

Q: What about the EC50 (CfEcR-DEF mutant W238E) of the same molecule?
A: ~6000 nM

Q: What about the Emax (CfEcR-DEF mutant W238E; [2]) of the same molecule?
A: 100%

Q: And the maximal fold induction (CfEcR-DEF mutant W238E; [3])?
A: 1020

Q: What about the “Concentration (mM) at max FI” value (CfEcR-DEF mutant W238E; mutant W238E, GS-E ligand) of the same molecule?
A: 33.3

Q: And the Emax (CfEcR-DEF mutant L132M)?
A: 100%

Q: And the Emax (CfEcR-DEF mutant L132M; relative to max fold induction of GS-E ligand)?
A: 100%

Q: What about the maximal fold induction (CfEcR-DEF mutant L132M; [3]) of the same molecule?
A: 1520

Q: And the “Concentration at max FI” value (CfEcR-DEF mutant L132M; mutant L132M, GS-E ligand)?
A: 10.00 mM
